Series [1] concerns the target T1, ATP-dependent translocase ABCB1 (Homo sapiens, UniProt P08183). The series is described as follows: TP_TRANSPORTER: transepithelial transport (basal to apical) in MDR1-expressing LLC-PK1 cells. It counts as functional, cell-based. Conditions: pig.
Series [2] concerns the target T1, ATP-dependent translocase ABCB1. The series can be described thus: TP_TRANSPORTER: inhibition of Digoxin transepithelial transport (basal to apical)(Digoxin: 0.1uM, Vinblastine: 20 uM) in MDR1-expressing LLC-PK1 cells. It counts as functional, cell-based. Conditions: pig, llc-pk1, 20 µM.

Structures are written as SMILES.

T1 sequence (P08183 whole entry): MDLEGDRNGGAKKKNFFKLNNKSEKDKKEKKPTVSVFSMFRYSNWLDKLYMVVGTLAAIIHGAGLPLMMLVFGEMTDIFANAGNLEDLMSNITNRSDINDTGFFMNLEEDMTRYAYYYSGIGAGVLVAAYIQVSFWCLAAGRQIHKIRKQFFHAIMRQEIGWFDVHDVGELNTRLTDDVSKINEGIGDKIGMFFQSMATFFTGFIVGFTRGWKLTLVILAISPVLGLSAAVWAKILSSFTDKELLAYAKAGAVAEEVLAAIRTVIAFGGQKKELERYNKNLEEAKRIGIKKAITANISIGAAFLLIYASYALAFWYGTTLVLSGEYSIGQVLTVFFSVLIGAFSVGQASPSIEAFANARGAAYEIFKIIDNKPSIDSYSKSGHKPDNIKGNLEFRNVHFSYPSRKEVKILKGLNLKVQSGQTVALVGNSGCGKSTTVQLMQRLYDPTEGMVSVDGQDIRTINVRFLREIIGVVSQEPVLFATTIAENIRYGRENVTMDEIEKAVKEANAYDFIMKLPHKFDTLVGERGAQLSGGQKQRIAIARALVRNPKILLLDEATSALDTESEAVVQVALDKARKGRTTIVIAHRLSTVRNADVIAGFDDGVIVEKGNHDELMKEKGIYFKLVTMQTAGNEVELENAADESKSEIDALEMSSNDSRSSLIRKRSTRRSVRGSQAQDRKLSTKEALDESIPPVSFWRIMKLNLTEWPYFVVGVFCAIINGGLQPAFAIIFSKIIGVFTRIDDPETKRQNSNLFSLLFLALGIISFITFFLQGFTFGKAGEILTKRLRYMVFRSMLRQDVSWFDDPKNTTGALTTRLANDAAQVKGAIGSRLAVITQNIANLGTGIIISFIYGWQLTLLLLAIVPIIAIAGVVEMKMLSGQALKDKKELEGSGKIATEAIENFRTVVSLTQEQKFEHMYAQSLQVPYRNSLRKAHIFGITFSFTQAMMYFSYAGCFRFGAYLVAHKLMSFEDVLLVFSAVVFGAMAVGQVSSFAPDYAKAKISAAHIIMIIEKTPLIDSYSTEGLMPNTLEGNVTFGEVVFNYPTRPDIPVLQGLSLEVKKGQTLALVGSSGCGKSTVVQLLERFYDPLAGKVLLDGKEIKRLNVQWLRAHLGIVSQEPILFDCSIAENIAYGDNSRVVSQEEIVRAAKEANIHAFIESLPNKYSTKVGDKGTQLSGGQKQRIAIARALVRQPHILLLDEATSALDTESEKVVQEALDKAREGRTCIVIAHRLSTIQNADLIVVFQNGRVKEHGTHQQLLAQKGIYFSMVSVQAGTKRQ

With `C[C@H]1O[C@@H](O[C@H]2[C@@H](O)C[C@H](O[C@H]3[C@@H](O)C[C@H](O[C@H]4CC[C@@]5(C)[C@H](CC[C@@H]6[C@@H]5C[C@@H](O)[C@]5(C)[C@@H](C7=CC(=O)OC7)CC[C@]65O)C4)O[C@@H]3C)O[C@@H]2C)C[C@H](O)[C@@H]1O` [DIGOXIN], the Activity result in series [1] is “substrate [+]”.
On to `CC[C@]1(O)C[C@@H]2CN(CCc3c([nH]c4ccccc34)[C@@](C(=O)OC)(c3cc4c(cc3OC)N(C)[C@H]3[C@@](O)(C(=O)OC)[C@H](OC(C)=O)[C@]5(CC)C=CCN6CC[C@]43[C@@H]65)C2)C1` [VINBLASTINE], for which the Activity result in series [2] is “inhibitor [+]”.

For the origin of these results see ChEMBL document CHEMBL2074548, “Transport of digoxin by human P-glycoprotein expressed in a porcine kidney epithelial cell line (LLC-PK1)” (J Pharmacol Exp Ther, 1992).
